The results in this text go back to patent US20250333407A1, “Compounds and Their Use for Treatment of Hemoglobinopathies” (Bristol-Myers Squibb Company, priority 2024, published 2025).

Type in all cases: cell-based
One test addresses T1, ZBTB7A (Homo sapiens, UniProt O95365+Q96SW2).
T1 construct: HUDEP-2 cells engineered to express a HiBiT tag in either the WIZ (Widely interspaced zinc finger) or ZBTB7A
The experiment in a line: HUDEP-2 ZBTB7A HiBiT degradation assay. The conditions noted are these: HiBiT-tagged ZBTB7A degradation in HUDEP-2 cells, 24 hours of treatment; read-out: ZBTB7A EC50. An outline of the steps:
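HiBiT-tagged HUDEP-2 cells were pre-cultured 48 h in IMDM with EPO, SCF, doxycycline and 5% human plasma, then exposed to compounds at 1.0×10^6 cells/ml for 24 h at 37 °C. Nano-Glo HiBiT lytic luminescence, normalised to DMSO over 10 concentrations, gave EC50 and Y-min.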

A further test addresses T2, WIZ (Homo sapiens, UniProt O95785+Q96SW2).
T2 construct: HUDEP-2 cells engineered to express a HiBiT tag in either the WIZ (Widely interspaced zinc finger) or ZBTB7A
Kind of test: HUDEP-2 WIZ HiBiT degradation assay. The conditions noted are these: HiBiT-tagged WIZ degradation in HUDEP-2 cells, 24 hours of treatment; read-out: WIZ EC50. Put shortly:
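HiBiT-tagged HUDEP-2 cells at 1.0×10^6 cells/ml in SFEM II with SCF, EPO, dexamethasone and doxycycline, treated 24 h at 37 °C with a 10-point series ([…]). Luminescence after HiBiT lytic detection, normalized to DMSO; EC50 and Y-min from fitted curves.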
On the technique in general: With HiBiT, luminescence reflects the tagged protein that the partner subunit can reach.

The test system of another test is HbF. The experiment in a line: HbF HiBiT induction assay in HUDEP-2 cells. As to conditions: HUDEP-2 cells with HiBiT tag in HBG1/2, 72 hours of treatment; area under the dose response curve, higher AUC = greater HbF induction. An outline of the steps:
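HUDEP-2 cells carrying a HiBiT tag on HBG1/2 were exposed to compounds for 72 h at 37° C, 5% CO2, in IMDM with EPO, hSCF, DOX, transferrin, insulin, heparin and 5% human plasma. HiBiT luminescence was read after lytic detection; HbF induction is expressed as dose-response AUC, alongside EC50 and Ymax.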

T2 sequence (O95785 whole entry): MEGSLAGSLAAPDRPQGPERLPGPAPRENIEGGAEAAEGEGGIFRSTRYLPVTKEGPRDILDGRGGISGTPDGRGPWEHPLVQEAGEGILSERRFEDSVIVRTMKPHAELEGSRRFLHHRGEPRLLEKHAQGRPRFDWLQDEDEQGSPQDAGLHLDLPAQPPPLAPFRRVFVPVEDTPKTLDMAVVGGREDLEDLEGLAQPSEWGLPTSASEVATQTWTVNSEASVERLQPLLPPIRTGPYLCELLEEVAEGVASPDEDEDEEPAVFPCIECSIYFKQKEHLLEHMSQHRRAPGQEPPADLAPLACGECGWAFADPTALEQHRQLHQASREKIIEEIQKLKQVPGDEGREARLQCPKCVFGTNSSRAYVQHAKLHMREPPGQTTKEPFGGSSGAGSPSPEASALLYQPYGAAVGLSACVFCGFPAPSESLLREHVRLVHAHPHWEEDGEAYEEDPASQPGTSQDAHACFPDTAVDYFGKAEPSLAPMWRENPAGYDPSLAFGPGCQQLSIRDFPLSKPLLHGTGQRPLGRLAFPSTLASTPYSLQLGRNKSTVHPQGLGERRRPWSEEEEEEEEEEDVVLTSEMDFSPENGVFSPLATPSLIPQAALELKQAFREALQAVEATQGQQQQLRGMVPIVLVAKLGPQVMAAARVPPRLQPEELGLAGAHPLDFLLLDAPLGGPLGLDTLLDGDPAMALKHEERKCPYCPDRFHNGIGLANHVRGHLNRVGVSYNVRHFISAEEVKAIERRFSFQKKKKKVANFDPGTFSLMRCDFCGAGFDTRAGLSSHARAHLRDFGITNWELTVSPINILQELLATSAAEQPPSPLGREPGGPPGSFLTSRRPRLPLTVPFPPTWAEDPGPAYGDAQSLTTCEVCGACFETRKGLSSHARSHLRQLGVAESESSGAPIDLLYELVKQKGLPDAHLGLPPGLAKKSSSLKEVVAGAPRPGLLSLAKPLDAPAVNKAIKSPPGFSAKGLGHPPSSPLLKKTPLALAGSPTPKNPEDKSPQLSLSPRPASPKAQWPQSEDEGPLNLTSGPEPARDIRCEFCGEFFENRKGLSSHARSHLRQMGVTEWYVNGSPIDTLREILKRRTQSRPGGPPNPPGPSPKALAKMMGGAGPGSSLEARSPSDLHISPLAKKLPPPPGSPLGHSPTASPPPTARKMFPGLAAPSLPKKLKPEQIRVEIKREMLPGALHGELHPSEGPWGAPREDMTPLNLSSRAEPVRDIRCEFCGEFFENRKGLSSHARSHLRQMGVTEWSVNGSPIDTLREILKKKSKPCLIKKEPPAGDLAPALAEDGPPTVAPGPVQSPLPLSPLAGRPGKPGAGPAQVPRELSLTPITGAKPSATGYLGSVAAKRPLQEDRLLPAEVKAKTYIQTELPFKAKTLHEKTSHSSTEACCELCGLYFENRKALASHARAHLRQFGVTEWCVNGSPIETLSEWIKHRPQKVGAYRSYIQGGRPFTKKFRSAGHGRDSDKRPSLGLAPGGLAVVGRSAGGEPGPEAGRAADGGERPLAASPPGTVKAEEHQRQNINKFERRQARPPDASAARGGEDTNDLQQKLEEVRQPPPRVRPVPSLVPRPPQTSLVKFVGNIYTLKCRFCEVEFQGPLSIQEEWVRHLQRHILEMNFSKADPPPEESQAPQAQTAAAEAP
T2 sequence (Q96SW2 whole entry): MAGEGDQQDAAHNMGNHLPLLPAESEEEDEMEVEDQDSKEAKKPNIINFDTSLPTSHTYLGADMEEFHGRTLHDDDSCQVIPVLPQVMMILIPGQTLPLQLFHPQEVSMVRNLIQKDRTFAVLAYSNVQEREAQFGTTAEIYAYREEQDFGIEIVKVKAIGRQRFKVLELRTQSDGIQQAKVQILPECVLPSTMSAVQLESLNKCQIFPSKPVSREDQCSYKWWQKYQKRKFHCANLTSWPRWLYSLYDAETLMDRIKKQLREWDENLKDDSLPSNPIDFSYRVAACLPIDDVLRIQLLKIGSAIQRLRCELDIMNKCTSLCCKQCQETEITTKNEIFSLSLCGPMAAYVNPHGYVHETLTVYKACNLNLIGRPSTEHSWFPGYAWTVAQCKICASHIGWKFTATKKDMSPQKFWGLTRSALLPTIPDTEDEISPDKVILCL
T2 sequence (Q16531 whole entry partner): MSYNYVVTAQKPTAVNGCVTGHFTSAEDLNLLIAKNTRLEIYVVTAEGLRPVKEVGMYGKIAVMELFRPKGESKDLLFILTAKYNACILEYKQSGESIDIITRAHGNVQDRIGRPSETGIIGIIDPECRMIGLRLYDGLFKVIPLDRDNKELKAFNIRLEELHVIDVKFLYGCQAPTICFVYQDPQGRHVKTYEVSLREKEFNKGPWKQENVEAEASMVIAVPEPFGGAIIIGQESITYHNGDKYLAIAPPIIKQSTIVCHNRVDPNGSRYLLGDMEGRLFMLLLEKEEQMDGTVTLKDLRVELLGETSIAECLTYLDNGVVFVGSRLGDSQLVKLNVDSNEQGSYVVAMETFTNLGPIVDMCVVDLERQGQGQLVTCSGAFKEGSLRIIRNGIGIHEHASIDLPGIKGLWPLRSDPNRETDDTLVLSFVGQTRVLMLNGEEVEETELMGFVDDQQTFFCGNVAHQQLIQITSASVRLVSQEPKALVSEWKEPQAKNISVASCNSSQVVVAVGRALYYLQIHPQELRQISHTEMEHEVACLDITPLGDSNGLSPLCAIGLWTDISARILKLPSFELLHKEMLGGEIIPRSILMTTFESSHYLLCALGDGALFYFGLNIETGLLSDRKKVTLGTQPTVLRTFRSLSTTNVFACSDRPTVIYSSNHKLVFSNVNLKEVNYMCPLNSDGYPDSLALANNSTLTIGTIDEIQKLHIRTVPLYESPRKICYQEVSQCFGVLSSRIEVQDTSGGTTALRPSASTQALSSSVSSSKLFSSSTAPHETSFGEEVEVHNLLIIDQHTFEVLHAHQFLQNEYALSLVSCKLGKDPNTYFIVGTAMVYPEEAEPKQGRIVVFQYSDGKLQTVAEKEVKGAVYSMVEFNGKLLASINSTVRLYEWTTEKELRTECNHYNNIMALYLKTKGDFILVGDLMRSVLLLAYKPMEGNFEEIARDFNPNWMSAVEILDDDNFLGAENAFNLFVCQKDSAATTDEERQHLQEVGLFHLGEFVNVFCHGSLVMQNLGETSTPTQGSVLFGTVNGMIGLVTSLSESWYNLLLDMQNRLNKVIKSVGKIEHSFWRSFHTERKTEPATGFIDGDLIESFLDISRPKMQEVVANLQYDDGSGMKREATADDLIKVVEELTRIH
T1 sequence (O95365 whole entry): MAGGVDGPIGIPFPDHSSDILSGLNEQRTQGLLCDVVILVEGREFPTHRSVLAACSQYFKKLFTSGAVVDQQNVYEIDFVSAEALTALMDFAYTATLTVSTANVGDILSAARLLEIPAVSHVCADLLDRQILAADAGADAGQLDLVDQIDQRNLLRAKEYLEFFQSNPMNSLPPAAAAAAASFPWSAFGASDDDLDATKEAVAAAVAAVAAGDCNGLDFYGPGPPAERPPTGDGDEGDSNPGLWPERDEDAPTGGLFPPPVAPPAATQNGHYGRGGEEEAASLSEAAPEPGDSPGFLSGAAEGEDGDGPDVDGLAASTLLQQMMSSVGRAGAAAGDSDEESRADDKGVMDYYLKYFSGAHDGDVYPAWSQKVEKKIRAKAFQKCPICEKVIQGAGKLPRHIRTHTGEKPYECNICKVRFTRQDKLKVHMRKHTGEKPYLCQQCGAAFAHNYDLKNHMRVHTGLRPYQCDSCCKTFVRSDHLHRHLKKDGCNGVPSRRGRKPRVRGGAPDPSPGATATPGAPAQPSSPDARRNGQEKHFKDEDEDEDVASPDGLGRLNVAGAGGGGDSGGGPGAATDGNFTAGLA
T1 sequence (Q96SW2 whole entry): as the sequence (Q96SW2 whole entry) above
T1 sequence (Q16531 whole entry partner): as the sequence (Q16531 whole entry partner) above

For the compound `Cc1cc(-c2cc3c(cc2Nc2cccc4c2C(=O)N([C@H]2CCC(=O)NC2=O)C4=O)N(C)C(=O)[C@@H](C)O3)cc(C(F)F)n1` [Compound 49, 4-(((R)-7-(2-(difluoromethyl)-6-methylpyridin-4-yl)-2,4-dimethyl-3-oxo-3,4-dihydro-2H-benzo[b][1,4]oxazin-6-yl)amino)-2-((S)-2,6-dioxopiperidin-3-yl)isoindoline-1,3-dione], the DC50 is 71 nM on ZBTB7A and 39 nM on WIZ. The “HBF AUC” value with HbF is “++ (++ = 100 ≤ AUC < 150)”.

Turning to `Cc1cc(-c2cc3c(cc2Nc2cccc4c2C(=O)N(C2CCC(=O)NC2=O)C4=O)N(C)S(=O)(=O)CC3)ccn1` (stereo not drawn) [Compound 50, 2-(2,6-dioxopiperidin-3-yl)-4-((1-methyl-6-(2-methylpyridin-4-yl)-2,2-dioxido-3,4-dihydro-1H-benzo[c][1,2]thiazin-7-yl)amino)isoindoline-1,3-dione], the DC50 at ZBTB7A was determined as 28 nM; on WIZ, 18 nM. Further, in the test with HbF, the “HBF AUC” value is listed as “+ (+ = 15 ≤ AUC < 100)”.

Regarding `COc1ncc(-c2cc3c(cc2Nc2cccc4c2C(=O)N(C2CCC(=O)NC2=O)C4=O)N(C)C(=O)CO3)cc1F` (stereo not drawn) [Compound 51, 2-(2,6-dioxopiperidin-3-yl)-4-((7-(5-fluoro-6-methoxypyridin-3-yl)-4-methyl-3-oxo-3,4-dihydro-2H-benzo[b][1,4]oxazin-6-yl)amino)isoindoline-1,3-dione], the DC50 was 30 nM at ZBTB7A and 37 nM on WIZ. In addition, the “HBF AUC” value in the test on HbF was “++ (++ = 100 ≤ AUC < 150)”.

Take `CCOc1cc(-c2cc3c(cc2Nc2cccc4c2C(=O)N(C2CCC(=O)NC2=O)C4=O)N(C)C(=O)CO3)ccn1` (stereo not drawn) [Compound 52, 2-(2,6-dioxopiperidin-3-yl)-4-((7-(2-ethoxypyridin-4-yl)-4-methyl-3-oxo-3,4-dihydro-2H-benzo[b][1,4]oxazin-6-yl)amino)isoindoline-1,3-dione]: the DC50 worked out at 143 nM on ZBTB7A and 12 nM on WIZ. Also, in the test with HbF, the “HBF AUC” value is “+ (+ = 15 ≤ AUC < 100)”.

Turning to `CN1C(=O)COc2cc([C@H]3CC[C@H](C#N)CC3)c(Nc3cccc4c3C(=O)N(C3CCC(=O)NC3=O)C4=O)cc21` (stereo partly drawn) [Compound 53, (1r,4r)-4-(6-((2-(2,6-dioxopiperidin-3-yl)-1,3-dioxoisoindolin-4-yl)amino)-4-methyl-3-oxo-3,4-dihydro-2H-benzo[b][1,4]oxazin-7-yl)cyclohexane-1-carbonitrile], the figures for the DC50 at ZBTB7A and at WIZ were 10 nM and 4 nM, respectively. For the same compound, the “HBF AUC” value in the test with HbF was “++ (++ = 100 ≤ AUC < 150)”.

As for `CCO[C@H]1CC[C@H](c2cc3c(cc2Nc2cccc4c2C(=O)N([C@@H]2CCC(=O)NC2=O)C4=O)N(C)C(=O)[C@@H](C)O3)CC1` [Compound 54, 2-((R)-2,6-dioxopiperidin-3-yl)-4-(((R)-7-((1r,4R)-4-ethoxycyclohexyl)-2,4-dimethyl-3-oxo-3,4-dihydro-2H-benzo[b][1,4]oxazin-6-yl)amino)isoindoline-1,3-dione], the DC50 on ZBTB7A came to 14 nM; on WIZ, 8 nM. The “HBF AUC” value in the test on HbF is given as “++ (++ = 100 ≤ AUC < 150)”.

In the case of `CCO[C@H]1CC[C@H](c2cc3c(cc2Nc2cccc4c2C(=O)N([C@@H]2CCC(=O)NC2=O)C4=O)N(C)C(=O)[C@H](C)O3)CC1` [Compound 55, 2-((R)-2,6-dioxopiperidin-3-yl)-4-(((S)-7-((1r,4S)-4-ethoxycyclohexyl)-2,4-dimethyl-3-oxo-3,4-dihydro-2H-benzo[b][1,4]oxazin-6-yl)amino)isoindoline-1,3-dione], the DC50 on ZBTB7A amounted to 9 nM; at WIZ, 6 nM. In the test on HbF, the “HBF AUC” value is on record as “++ (++ = 100 ≤ AUC < 150)”.

With `CCN1C(=O)COc2cc(-c3cc(C)nc(C)c3)c(Nc3cccc4c3C(=O)N(C3CCC(=O)NC3=O)C4=O)cc21` (stereo not drawn) [Compound 56, 4-((7-(2,6-dimethylpyridin-4-yl)-4-ethyl-3-oxo-3,4-dihydro-2H-benzo[b][1,4]oxazin-6-yl)amino)-2-(2,6-dioxopiperidin-3-yl)isoindoline-1,3-dione], the DC50 stood at 43 nM at ZBTB7A and 20 nM on WIZ. In the test with HbF, the “HBF AUC” value is “++ (++ = 100 ≤ AUC < 150)”.

`Cc1cc(-c2cc3c(cc2Nc2cccc4c2C(=O)N(C2CCC(=O)NC2=O)C4=O)N(C)C(=O)CO3)cc(C2CC2)n1` (stereo not drawn) [Compound 57, 4-((7-(2-cyclopropyl-6-methylpyridin-4-yl)-4-methyl-3-oxo-3,4-dihydro-2H-benzo[b][1,4]oxazin-6-yl)amino)-2-(2,6-dioxopiperidin-3-yl)isoindoline-1,3-dione]: the DC50 on ZBTB7A came out at 54 nM; on WIZ it was 18 nM. Moreover, the “HBF AUC” value in the test on HbF is listed as “+++ (+++ = AUC ≥ 150)”.

On to `Cc1cc(-c2cc3c(cc2Nc2cccc4c2C(=O)N([C@@H]2CCC(=O)NC2=O)C4=O)N(C)C(=O)CO3)c(F)cn1` [Compound 58, (R)-2-(2,6-dioxopiperidin-3-yl)-4-((7-(5-fluoro-2-methylpyridin-4-yl)-4-methyl-3-oxo-3,4-dihydro-2H-benzo[b][1,4]oxazin-6-yl)amino)isoindoline-1,3-dione], for which the DC50 at ZBTB7A is 10 nM; at WIZ, 9 nM. The “HBF AUC” value in the test on HbF is on record as “++ (++ = 100 ≤ AUC < 150)”.

As for `Cc1cc(-c2cc3c(cc2Nc2cccc4c2C(=O)N([C@@H]2CCC(=O)NC2=O)C4=O)N(C)C(=O)CO3)ccn1` [Compound 59, (R)-2-(2,6-dioxopiperidin-3-yl)-4-((4-methyl-7-(2-methylpyridin-4-yl)-3-oxo-3,4-dihydro-2H-benzo[b][1,4]oxazin-6-yl)amino)isoindoline-1,3-dione], the DC50 was 10 nM on ZBTB7A and 8 nM on WIZ. Moreover, the “HBF AUC” value with HbF is listed as “+++ (+++ = AUC ≥ 150)”.

Take `CNc1cc(-c2cc3c(cc2Nc2cccc4c2C(=O)N(C2CCC(=O)NC2=O)C4=O)N(C)C(=O)CO3)c(F)cn1` (stereo not drawn) [Compound 60, 2-(2,6-dioxopiperidin-3-yl)-4-((7-(5-fluoro-2-(methylamino)pyridin-4-yl)-4-methyl-3-oxo-3,4-dihydro-2H-benzo[b][1,4]oxazin-6-yl)amino)isoindoline-1,3-dione]: the DC50 was 11 nM on ZBTB7A and 9 nM at WIZ. Further, the “HBF AUC” value in the test on HbF is “+++ (+++ = AUC ≥ 150)”.

Take `Cc1cc(-c2cc3c(cc2Nc2cccc4c2C(=O)N([C@H]2CCC(=O)NC2=O)C4=O)N(C)C(=O)CO3)c(F)cn1` [Compound 61, (S)-2-(2,6-dioxopiperidin-3-yl)-4-((7-(5-fluoro-2-methylpyridin-4-yl)-4-methyl-3-oxo-3,4-dihydro-2H-benzo[b][1,4]oxazin-6-yl)amino)isoindoline-1,3-dione]: the results for the DC50 at ZBTB7A and on WIZ were 11 nM and 7 nM, respectively. Also, in the test with HbF, the “HBF AUC” value is “++ (++ = 100 ≤ AUC < 150)”.

Consider `Cc1cc(-c2cc3c(cc2Nc2cccc4c2C(=O)N(C2CCC(=O)NC2=O)C4=O)N(C)C(=O)OC3)cc(C)n1` (stereo not drawn) [Compound 62, 4-((6-(2,6-dimethylpyridin-4-yl)-1-methyl-2-oxo-1,4-dihydro-2H-benzo[d][1,3]oxazin-7-yl)amino)-2-(2,6-dioxopiperidin-3-yl)isoindoline-1,3-dione], for which the values for the DC50 at ZBTB7A and on WIZ were 19 nM and 17 nM, respectively. Also, the “HBF AUC” value in the test on HbF was “++ (++ = 100 ≤ AUC < 150)”.

For `CC(=O)N1CCCC(c2cc3c(cc2Nc2cccc4c2C(=O)N([C@H]2CCC(=O)NC2=O)C4=O)N(C)C(=O)CO3)C1` (stereo partly drawn) [Compound 63, 4-((7-(1-acetylpiperidin-3-yl)-4-methyl-3-oxo-3,4-dihydro-2H-benzo[b][1,4]oxazin-6-yl)amino)-2-((S)-2,6-dioxopiperidin-3-yl)isoindoline-1,3-dione], the DC50 on ZBTB7A is 14 nM; on WIZ, 16 nM. The “HBF AUC” value in the test on HbF is reported as “++ (++ = 100 ≤ AUC < 150)”.

Turning to `CCOc1nccc(-c2cc3c(cc2Nc2cccc4c2C(=O)N(C2CCC(=O)NC2=O)C4=O)N(C)C(=O)CO3)c1C` (stereo not drawn) [Compound 64, 2-(2,6-dioxopiperidin-3-yl)-4-((7-(2-ethoxy-3-methylpyridin-4-yl)-4-methyl-3-oxo-3,4-dihydro-2H-benzo[b][1,4]oxazin-6-yl)amino)isoindoline-1,3-dione], the DC50 at ZBTB7A came to 53 nM; at WIZ, 12 nM. For the same compound, the “HBF AUC” value with HbF is on record as “++ (++ = 100 ≤ AUC < 150)”.

For `COc1nccc(-c2cc3oc(=O)n(C)c3cc2Nc2cccc3c2C(=O)N(C2CCC(=O)NC2=O)C3=O)c1F` (stereo not drawn) [Compound 65, 2-(2,6-dioxopiperidin-3-yl)-4-((6-(3-fluoro-2-methoxypyridin-4-yl)-3-methyl-2-oxo-2,3-dihydrobenzo[d]oxazol-5-yl)amino)isoindoline-1,3-dione], the DC50 was 96 nM at ZBTB7A and 41 nM on WIZ. For the same compound, the “HBF AUC” value with HbF was “+ (+ = 15 ≤ AUC < 100)”.

On to `CNc1cc(-c2cc3c(cc2Nc2cccc4c2C(=O)N(C2CCC(=O)NC2=O)C4=O)N(C)C(=O)CO3)cc(C)n1` (stereo not drawn) [Compound 66, 2-(2,6-dioxopiperidin-3-yl)-4-((4-methyl-7-(2-methyl-6-(methylamino)pyridin-4-yl)-3-oxo-3,4-dihydro-2H-benzo[b][1,4]oxazin-6-yl)amino)isoindoline-1,3-dione], for which the DC50 on ZBTB7A turned out to be 188 nM; on WIZ, 15 nM. The “HBF AUC” value with HbF was “++ (++ = 100 ≤ AUC < 150)”.
